Where a name gives a salt, the structure may show the parent alone. Read-outs that look alike come from different tables or passages of the source.
Experiments:
[1] = hamsters; cited from earlier work
[2] = compared to ursodeoxycholic acid; cited from earlier work
[3] = oral, rats; cited from earlier work
[4] = test system: HUH-7 cells; experiment: alamarBlue cell viability assay, HUH-7 cells treated with tunicamycin
Source text: Tunicamycin is known to induce Endoplasmic Reticulum (ER) stress, resulting ultimately in induction of apopotosis.

[5] = test system: HepG2 cells; experiment: alamarBlue cell viability assay, HepG2 cells treated with tunicamycin; format: cell-based
[6] = test system: HUH-7 cells; experiment: Cytoprotection model: DCA-induced cell death in HUH-7 cells
Method: HUH-7 cells were then treated with UDCA and TUDCA in increasing concentration.
HUH-7 cells in culture were then treated with a large library of UDCA 7-analogues to screen for compounds lacking intrinsic toxicity.

[7] = test system: HUH-7 cells; experiment: alamarBlue cell viability assay, HUH-7 cells treated with DCA; format: cell-based; details: 24 h before DCA 200 μM, then co-treated 24 h (FIG. 14a); for cytoprotective effect (alamarBlue): 100, 50, 10 μM
Source text: (§1) The difference between the observed cell viability in each of the assays is a consequence of the different properties measured in each assay. The alamarBlue™ assay uses resazurin-based reagents that function as cell health indicators by using the reducing power of living cells to quantitatively measure viability. Upon entering living cells, resazurin is reduced to resorufin, a compound that is red in color and highly fluorescent. The MTT assay is a colorimetric assay for assessing cell metabolic activity. NAD(P)H-dependent cellular oxidoreductase enzymes may, under defined conditions, reflect the number of viable cells present.

[8] = test system: ANIT-induced model of cholangitis; experiment: Rat ANIT-induced model of cholangitis; format: in vivo, Sprague-Dawley rats; details: oral, over a week, 20-30 mg/kg
Method: This rat model of cholangitis was employed to assess the efficacy of lead compounds by monitoring aspartate aminotransferase (AST) serum levels and alanine aminotransferase (ALT) serum levels.
Test compounds were to be assessed for their effect on liver damage using this chronic ANIT-induced model of cholangitis. UDCA was tested orally at high dose of 100 mg/kg in order to ensure an effect in the functional model that mimics its clinical effects in cholestasis patients. […] In this case ANIT was added to the chow at 0.1% inducing cholestasis and the compounds were tested by oral administration over the course of a week. Serum liver enzymes AST and ALT were measured as measures of liver damage and cholestasis. In comparison to the UDCA dose, the sulfonamide and triazole were dosed in the range 20-30 mg/kg.

[9] = test system: HUH-7 cells; experiment: MTT cell viability assay, HUH-7 cells treated with DCA; format: cell-based; details: 100, 50, 10 μM; 24 h before DCA 200 μM, then co-treated 24 h (FIG. 14b)
Source text: as §1, with “The” for “The difference between the observed cell viability in each of the assays is a consequence of the different properties measured in each assay. The”

[10] = test system: HUH-7 liver cancer cells; format: cell-based
Method: A model of bile-acid induced liver injury was developed using HUH-7 liver cancer cells growing in culture. These were treated with increasing concentrations of DCA and GCDCA and the effect monitored using cell count on a high content platform (for example on an IN Cell analyser), MTT as a measure of metabolic activity and propidium iodide (PI). PI is normally cell impermeable so cellular staining is used as a way to detect cells with damaged walls. Appearance of PI positive cells soon after treatment with bile acid and PI indicated necrosis possibly through surfactant damage to the cell wall. A reduction in cell number or metabolic activity occurred without significant PI staining is consistent with an apoptotic form of cell death. DCA caused significant cell death in the range 200-500 μM associated with apoptosis because of the low levels of PI staining. […] (See FIG. 3(a) and FIG. 3(b)).

[11] = test system: hepatocytes in cell culture; details: in vitro, cited from earlier work
[12] = test system: HUH-7 cells; experiment: Cytoprotection model: GCDCA-induced cell death in HUH-7 cells; format: cell-based; details: 24 h pre-treatment, then co-treatment with GCDCA
[13] = cited from earlier work
[14] = 24 h before TM 5 μM, then co-treated 24 h (FIG. 15a)

## C[C@H](CCC(=O)O)[C@H]1CCC2C3C(CC[C@@]21C)[C@@]1(C)CC[C@@H](O)CC1C[C@]3(C)O (stereo partly drawn)
[1]
  resistance to bacterial modification (metabolism): more resistant than the naturally occurring analogues

## C[C@H](CCC(=O)O)[C@H]1CCC2C3C(CC[C@@]21C)[C@@]1(C)CC[C@@H](O)CC1[C@@H](C)[C@@H]3O (stereo partly drawn) [6-α-methyl ursodeoxycholic acid]
[2]
  metabolic stability: increased metabolic stability compared to ursodeoxycholic acid

## CC(CCC(=O)O)C1CCC2C3C(O)CC4CC(OS(=O)(=O)O)CCC4(C)C3CCC12C (stereo not drawn) [C-3 sulfate]
[3]
  faecal lithocholic acid: increased faecal lithocholic acid significantly

## CC(CCC(=O)O)C1CCC2C3C(OS(=O)(=O)O)CC4CC(O)CCC4(C)C3CCC12C (stereo not drawn) [C-7 sulfate]
[3]
  faecal lithocholic acid/deoxycholic acid ratio: reduced

## C[C@H](CCC(=O)O)[C@H]1CC[C@H]2[C@@H]3[C@@H](NS(C)(=O)=O)C[C@@H]4C[C@H](O)CC[C@]4(C)[C@H]3CC[C@]12C [Compound 21, 3α-hydroxy-7β-(methanesulfonamido)-5β-cholanoate]
[4]; [14]
  cell viability on pre/co-treatment with tunicamycin: significant increase in cell viability
  concentration giving complete maintenance of cell viability (or effects of similar size): 10 µM
[5]; 24 h before TM 5 μM, then co-treated 24 h (FIG. 15b)
  cytoprotective effect against tunicamycin: cytoprotective effect of sulfonamide (21) was also observed
[5]; lowest concentration tested of sulfonamide (21)
  comparison with UDCA and TUDCA under the same conditions: outperformed all concentrations of UDCA and TUDCA
[6]; FIG. 7
  concentration range of effective inhibition of DCA-induced cell death: 10 to 100 µM
[7]
  cytoprotective effect (alamarBlue): significant cytoprotective effect at all concentrations measured
  concentration with almost complete cell viability/cytoprotection: ≥ 50 µM
[8]; ANIT 0.1% in chow (FIG. 8a)
  AST serum levels: normalised AST serum levels
[8]; ANIT 0.1% in chow (FIG. 8b)
  ALT serum levels: normalised ALT serum levels
[9]
  cytoprotective effect / increase in cell viability (MTT): significant cytoprotective effect

## C[C@H](CCC(=O)O)[C@H]1CC[C@H]2[C@@H]3CC[C@@H]4C[C@H](O)CC[C@]4(C)[C@H]3C[C@H](O)[C@]12C [DCA, deoxycholic acid]
[10]; human
  concentration range causing significant cell death: 200 to 500 µM

## CC(CCC(=O)NCC(=O)O)C1CCC2C3C(O)CC4CC(O)CCC4(C)C3CCC12C (stereo not drawn) [GCDCA, glycochenodeoxycholic acid]
[10]
  effect on cell viability: reduction in cell viability at higher concentration with greater evidence of necrosis

## C[C@H](CCC(=O)NCCS(=O)(=O)O)[C@H]1CC[C@H]2[C@@H]3[C@@H](O)C[C@@H]4C[C@H](O)CC[C@]4(C)[C@H]3CC[C@]12C [TUDCA, tauroursodeoxycholic acid]
[11]; up to the mM concentration range
  protective effect in cell-based models: weakly but consistently protective
[4]; [14]
  concentration giving complete maintenance of cell viability (or effects of similar size): 100 µM
[6]; 24 h pre-treatment (UDCA 100 μM, TUDCA 1 mM), withdrawn, then DCA (FIG. 4c)
  protective effect when compound withdrawn before DCA: protective effect of TUDCA was not observed
[6]; 24 h pre-treatment, then DCA 200 μM added, TUDCA 1 mM, UDCA 100 μM (FIG. 4b)
  cell viability 24 h after DCA, compared to DCA alone: significant increase in cell viability
[6]; combined with DCA without pre-treatment (FIG. 4a)
  cell viability at 24 h post treatment, combination with DCA: did not lead to increased cell viability
[6]; pre-/co-treatment with DCA (FIG. 5a)
  concentration giving statistically significant increase in cell viability: ≥ 1 mM
[12]
  cytoprotective effect against GCDCA: significant cytoprotective effect
[7]
  cytoprotective effect (alamarBlue): less than with UDCA and the sulphonamide (21)
[9]
  cytoprotective effect / increase in cell viability (MTT): significantly lesser degree
[10]
  significant cell death on treatment in increasing concentration: did not

## C[C@H](CCC(=O)O)[C@H]1CC[C@H]2[C@@H]3[C@@H](O)C[C@@H]4C[C@H](O)CC[C@]4(C)[C@H]3CC[C@]12C [UDCA, ursodeoxycholic acid]
[3]
  faecal lithocholic acid: increased faecal lithocholic acid significantly
[11]
  concentration at which it can contribute to cell death: > 200 µM
[4]; [14]
  concentration giving complete maintenance of cell viability (or effects of similar size): 100 µM
[13]; oral administration
  fraction absorbed: 30-60%
[13]; via passive diffusion
  share of absorption occurring in the small intestine: around 80%
[10]; human
  significant cell death on treatment in increasing concentration: 300 μM-1 mM

## tunicamycin
[4]; tunicamycin alone, 5 μM, HUH7
  decrease in cell viability (alamarBlue): approximately 30%

Source: patent US12522631B2, “Compounds for use in the treatment of liver disease” (The Provost, Fellows, Foundation Scholars, And The Other …, priority 2019, dated 2026)
